A word on the IC50: it is the concentration at which inhibition is half-maximal. High values mean lower potency, low ones higher potency. Broadly, the fraction unbound is free concentration divided by total concentration. A low value points to little free substance.

From patent US9056865B2, “Pyridine-2-derivatives as smoothened receptor modulators” (Pfizer Inc., priority 2010, dated 2015) come the findings set out here.

Series [1] relates to Gli-Luc/MEF cells. Kind of series: Gli-Luc/MEF assay. Type of series: cell-based, mouse. As to conditions: Mus musculus, MEF; Shh-stimulated luciferase, 48 hours. In short, it runs like this: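 Mouse embryonic fibroblasts from Gli-Luc transgenic mice (luciferase under Gli response element) dosed with compounds (final […], 3-fold series), then stimulated with recombinant mouse Shh at final 2 μg/mL. After 48 h at 37 °C, luminescence read by Bright-Glo; IC50 from inhibition of Shh-induced signal.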

The target of series [2] is P-glycoprotein (Homo sapiens (Human), UniProt P08183). Kind of series: P-glycoprotein substrate status. The class given is in vitro ADME.
Chain of P-glycoprotein (P08183 whole entry): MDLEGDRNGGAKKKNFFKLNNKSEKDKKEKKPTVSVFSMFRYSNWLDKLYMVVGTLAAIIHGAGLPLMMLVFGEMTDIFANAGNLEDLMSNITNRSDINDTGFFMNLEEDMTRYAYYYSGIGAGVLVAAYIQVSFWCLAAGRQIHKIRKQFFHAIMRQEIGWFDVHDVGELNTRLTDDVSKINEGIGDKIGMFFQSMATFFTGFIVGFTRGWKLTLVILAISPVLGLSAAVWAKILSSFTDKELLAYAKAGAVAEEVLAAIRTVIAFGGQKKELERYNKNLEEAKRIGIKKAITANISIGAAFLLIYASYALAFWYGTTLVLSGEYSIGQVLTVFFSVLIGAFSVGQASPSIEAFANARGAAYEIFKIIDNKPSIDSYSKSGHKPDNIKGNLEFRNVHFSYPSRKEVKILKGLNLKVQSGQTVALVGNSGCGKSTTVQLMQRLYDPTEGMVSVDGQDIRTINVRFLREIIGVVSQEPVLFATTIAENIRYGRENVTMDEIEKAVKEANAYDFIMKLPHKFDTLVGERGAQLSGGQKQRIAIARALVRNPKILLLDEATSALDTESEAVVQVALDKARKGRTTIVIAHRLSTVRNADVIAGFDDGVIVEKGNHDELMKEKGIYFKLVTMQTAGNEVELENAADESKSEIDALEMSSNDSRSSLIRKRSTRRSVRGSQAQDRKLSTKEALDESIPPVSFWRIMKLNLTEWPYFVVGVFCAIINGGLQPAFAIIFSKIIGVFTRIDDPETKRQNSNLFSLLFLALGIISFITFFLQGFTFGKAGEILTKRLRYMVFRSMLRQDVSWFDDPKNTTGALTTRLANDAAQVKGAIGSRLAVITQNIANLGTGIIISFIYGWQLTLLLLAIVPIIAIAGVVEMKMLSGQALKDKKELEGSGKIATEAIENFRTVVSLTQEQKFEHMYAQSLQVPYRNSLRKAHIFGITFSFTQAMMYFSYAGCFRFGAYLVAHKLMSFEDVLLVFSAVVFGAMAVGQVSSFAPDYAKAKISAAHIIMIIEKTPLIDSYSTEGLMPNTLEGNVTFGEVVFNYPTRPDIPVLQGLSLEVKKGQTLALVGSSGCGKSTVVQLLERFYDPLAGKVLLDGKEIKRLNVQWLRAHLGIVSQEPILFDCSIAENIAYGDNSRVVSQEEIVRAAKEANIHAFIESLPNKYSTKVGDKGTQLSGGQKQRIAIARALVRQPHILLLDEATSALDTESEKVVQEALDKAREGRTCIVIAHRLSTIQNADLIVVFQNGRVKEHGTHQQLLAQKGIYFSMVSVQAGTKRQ
In series [3] the target is human Smo (Homo sapiens (Human), UniProt Q99835). Kind of series: Smo radioligand competition binding assay. In short, it runs like this: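 Membranes from HEK293 cells expressing surface human Smo 181-781 (40 μg protein/well) incubated 2 h at room temperature with test compound and tritiated Smo antagonist (3 nM), pH 7.5 Tris buffer; filtration and scintillation counting. Non-specific binding defined with 30 μM cold antagonist; IC50 from four-parameter sigmoidal fit.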
Chain of human Smo (Q99835 181-787): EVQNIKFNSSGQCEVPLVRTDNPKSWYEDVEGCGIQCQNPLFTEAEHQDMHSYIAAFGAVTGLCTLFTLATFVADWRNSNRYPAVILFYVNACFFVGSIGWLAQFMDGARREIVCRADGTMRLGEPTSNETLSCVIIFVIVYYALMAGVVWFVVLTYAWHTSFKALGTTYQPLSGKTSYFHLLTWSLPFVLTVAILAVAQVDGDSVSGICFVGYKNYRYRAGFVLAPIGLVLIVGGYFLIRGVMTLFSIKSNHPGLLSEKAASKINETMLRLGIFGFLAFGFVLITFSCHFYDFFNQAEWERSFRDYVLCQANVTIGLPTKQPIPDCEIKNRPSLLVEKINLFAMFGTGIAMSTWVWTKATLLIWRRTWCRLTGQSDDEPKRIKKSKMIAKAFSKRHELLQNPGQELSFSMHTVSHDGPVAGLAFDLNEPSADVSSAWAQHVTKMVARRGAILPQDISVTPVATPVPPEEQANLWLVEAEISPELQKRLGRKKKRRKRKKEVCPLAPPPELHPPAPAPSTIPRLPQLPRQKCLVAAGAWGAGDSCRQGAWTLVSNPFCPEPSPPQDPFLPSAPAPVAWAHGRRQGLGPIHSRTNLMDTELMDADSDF
Background: In a radioligand displacement assay an active substance lowers the binding of a labelled ligand.

Series [4] in a line: rat plasma protein binding. The class given is in vitro ADME. As to conditions: previously determined.

Regarding `Cc1cnc(-c2cc(N3CCN(C(=O)CCS(C)(=O)=O)CC3)ncc2Cl)c(C)c1` [Example A-116, 5′-chloro-3,5-dimethyl-2′-{4-[3-(methylsulfonyl)propanoyl]piperazin-1-yl}-2,4′-bipyridine], the IC50 stood at 2.76 nM in series [1] and 6.8 nM in series [3]. Also, in series [2], the P-glycoprotein substrate result was “not a P-glycoprotein substrate”. In addition, the inhibition at 0.05 µM in series [3] (0.05 μM test compound, read-out: Smo % inh. @ 0.05 μM) is 101%. The same molecule registered a fraction unbound in series [4] of 0.067.
